Laboratory results reported in publication PMC6584507 (Scientific Reports, 2019).
Converted amounts (≈) assume the structure as drawn.

What was measured:
[1] = target: T1, FLAG-tagged hTSLP bound to His-tagged hTSLPR (Homo sapiens, UniProt Q969D9); assay: Pull-down assay, His-tagged hTSLPR and FLAG-tagged hTSLP, Western blotting; type: binding; settings: compound at 0, 10, 50 and 100 μM
T1 construct: human TSLP28–159 with thrombin cleavage site at C-terminus; thrombin cleavage site (C); 8xHis (from vector pAB-bee-8xHis) (C, cleaved yes); made in house; host or cells: Trichoplusia ni High-Five cells, baculovirus (secreted)
T1 sequence (Q969D9 28-159): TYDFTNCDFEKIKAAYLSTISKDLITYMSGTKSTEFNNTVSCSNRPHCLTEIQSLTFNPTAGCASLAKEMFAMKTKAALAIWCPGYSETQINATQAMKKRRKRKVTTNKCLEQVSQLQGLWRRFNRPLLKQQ

[2] = system: STAT5 phosphorylation in hTSLP-stimulated HMC-1 cells; assay: STAT5 assay (STAT5 phosphorylation, flow cytometry); type: cell-based, human
Description: (§1) HMC-1 cells were obtained from the Department of Food Technology and Inflammatory Disease Research Center (Hoseo University, Asan, Chungnam, Korea). Cells were cultured in Iscove’s modified Dulbecco’s medium (IMDM; Hyclone Laboratories Inc, USA) supplemented with 10% FBS and 1% Penicillin-streptomycin (PS; Gibco Industries Inc, USA) and incubated at 37 °C under humidified atmosphere of 95% air and 5% CO2. Recombinant hTSLP was purchased from R&D Systems (Minneapolis, USA).
Intracellular phospho-STAT5 (pSTAT5) staining method was based on the protocol obtained from the laboratory of Susan Kaech, Department of Immunobiology, Yale University School of Medicine (New Haven, Connecticut, USA). Briefly, HMC-1 cells were seeded in 96-well U-bottom plate at a density of 1 × 10^7 cells/mL and stimulated with 100 ng/mL recombinant hTSLP alone or with 1 for 30 min. After stimulation, cells were fixed with BD Cytofix/Cytoperm (BD Biosciences, USA) solution for 10 min. Fixed cells were then permeabilized with ice-cold methanol for 30 min, and intracellular pSTAT5 was stained with Alexa Fluor 647 mouse anti-STAT5 (pY694; BD Biosciences, USA) (1:10 dilution in FACS buffer) for 30 min. Stained cells were further fixed with BD Cytofix/Cytoperm solution for 10 min and re-suspended in FACS buffer for flow cytometry analysis. Cells were analyzed by a BD LSR Fortessa Flow cytometry (BD Biosciences, USA). FACS data were analyzed using FlowJo software Ver 9. 7. 6 (Tree Star Inc., USA).

[3] = system: pSTAT5 in TSLP-stimulated HMC-1 cells; assay: Western blot analysis of STAT5 phosphorylation; type: cell-based, human; settings: HMC-1 cells pretreated, TSLP 20 ng/mL for 2 h
Description: as §1
[…] Activated cells were lysed and separated by 10% sodium dodecyl sulfate-polyacrylamide gel electrophoresis (SDS-PAGE). After electrophoresis, proteins were transferred to nitrocellulose membranes. The membranes were blocked, incubated with primary antibodies (1:700 dilution in PBS with 0.05% Tween-20), and developed using peroxidase-conjugated secondary antibodies (1:3000 dilution in PBS with 0.05% Tween-20). Proteins were visualized by enhanced chemiluminescence (Amersham Bioseciences, Piscataway, NJ, USA) according to the manufacturer’s instructions.

[4] = Kinetic aqueous solubility; type: physicochemical; settings: 0.1 M potassium phosphate buffer, kinetic from dmso stock, PBS / phosphate buffer pH 7.4
Description: In brief, 10 mM stock solution of tested compounds was prepared in DMSO. 25 μL of the stock solution was added to a 1-mL uniprep vial containing 475 μL of 0.1 M potassium phosphate buffer (pH 7.4), and was shaken at 800 rpm for 90 min at room temperature. Following shaking, the mixture was filtered by slowly pressing the upper tube of the 1 mL Mini-Uniprep^TM filter (PTFE membrane, 0.45 μm). 250 μL of the filtrate solution was then transferred to a HPLC vial containing equal volume of acetonitrile.

HDM-challenged mice = assay: HDM-induced mouse model of allergic airway inflammation; type: in vivo; settings: 1 (200 μg/mL) on day 4, 6 and 8; analysis on day 11
Description: Approximately 1 × 10^6 CD4 T cells from DO11.10 mice were transferred to naïve BALB/c mice intravenously. The following day, mice were challenged with a mixture of HDM (50 μg of Dermatophagoides farinae and Dermatophagoides pteronyssinus each; Greer Laboratories, Inc., USA) and 100 μg of OVA (Sigma-Aldrich Co., USA) for three days via the intranasal route. Mice were treated with 1 (200 μg) or PBS intraperitoneally three times every other day starting from […] post-challenge based on previous report. Allergen-challenged mice were sacrificed on day 11 post-challenge. […] The total cell number was counted using a hemocytometer. Leukocytes were transferred to glass slides by Cytospin (Thermo Scientific, USA) at 2,800 rpm for 5 min, and stained with Diff-Quick staining (Sysmex Corporation, Japan). Flow cytometry analysis: […] Cells were stained with anti-CD4 FITC (RM4-5, Biolegend Inc., USA), anti-CD127 PE/Cy7 (A7R34, Biolegend Inc., USA), anti-CD62L APC/Cy7 (MEL14, Biolegend Inc., USA), anti-CD27 PE (LG.7F9, eBioscience Inc., USA), and anti-DO11.10APC (KJ1-26, eBioscience Inc., USA) antibodies for 30 min. Stained cells were examined by flow cytometry using LSR Fortessa ^TM. Data were analyzed using FlowJo software Ver 9.7.6.

[5] = system: OVA-sensitized and challenged mice; assay: OVA-induced mouse model of allergic airway inflammation; type: in vivo
Description: Sensitization and airway challenge: For initial sensitization, BALB/c mice were administered intraperitoneally on day 0 with 20 μg of OVA emulsified in 200 μL of sterile PBS containing 1 mg of aluminum hydroxide adjuvant (Imject® Alum, Thermofisher, Korea). On day 14, the mice were boosted with the same allergen by IP injection. […] The mice were sacrificed at the indicated time points and BAL was performed. […] The control group received vehicle only. BAL: Immediately after sacrifice, lungs were lavaged as described above. Total leukocyte numbers were counted. Differential cell counts were performed by counting at least 200 cells on cytocentrifuged samples stained with Diff-Quick solution.

hTSLP = target: T2, hTSLP (Homo sapiens, UniProt Q969D9); assay: 1D and CPMG relaxation-edited NMR ligand binding; settings: 1 at 100 μM, PBS buffer condition
T2 construct: human TSLP28–159 with thrombin cleavage site at C-terminus; thrombin cleavage site (C); 8xHis (from vector pAB-bee-8xHis) (C, cleaved yes); made in house; host or cells: Trichoplusia ni High-Five cells, baculovirus (secreted)
T2 sequence (Q969D9 28-159): as above

carbonic anhydrase = assay: 1D and CPMG relaxation-edited NMR ligand binding; settings: 1 at 100 μM, 2.5 μM carbonic anhydrase
Description: (§2) All spectra were measured at 283, 291, and 298 K. Data processing and analysis were conducted using TopSpin 3.1 program (Bruker, Germany). One-dimensional (1D) relaxation-edited experiments were performed using the method previously described by Hadjuk et al.[23]. We used CPMG pulse train with a pre-acquisition delay of 1.8 s, a 2 ms delay for dephasing and rephrasing in spin echo, and a total spin-lock time of 400 ms. The data were collected using a spectral width of 9,615 Hz and 128 scans.

hTSLPR = target: T3, hTSLPR (Homo sapiens, UniProt Q9HC73); assay: 1D and CPMG relaxation-edited NMR ligand binding; settings: 1 at 100 μM, 2.5 μM hTSLPR
T3 construct: human TSLPR26–217 with C-terminal octa-histidine tag (hTSLPR-His); 8xHis (C); made in house; host or cells: Trichoplusia ni High-Five cells, baculovirus (secreted)
T3 sequence (Q9HC73 26-217): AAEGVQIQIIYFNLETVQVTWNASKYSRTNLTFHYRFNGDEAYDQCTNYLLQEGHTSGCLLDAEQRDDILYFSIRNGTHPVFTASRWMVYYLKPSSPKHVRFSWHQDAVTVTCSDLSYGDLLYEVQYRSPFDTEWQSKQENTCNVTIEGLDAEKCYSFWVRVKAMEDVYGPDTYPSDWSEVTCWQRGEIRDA
Description: as §2

[6] = system: ovalbumin (OVA)-treated mice; settings: cited from earlier work
[7] = system: house dust mite (HDM)-challenged mice; settings: cited from earlier work

O=c1cc(-c2ccccc2)oc2cc(O)c(O)c(O)c12 [Compound 1, baicalein]
amount of FLAG-tagged hTSLP bound to His-tagged hTSLPR [1]: reduced in a dose-dependent manner | STAT5 phosphorylation % ([2]; 3 µM): 65.7% | STAT5 phosphorylation % ([2]; 10 μM): 61.6% | hTSLP inhibitory activity in the in vitro STAT5 assay (in words) ([2]; HMC-1 cells, hTSLP 100 ng/mL, 30 min, compound 1 at 3 or 10 μM): inhibited | inhibition of STAT5 phosphorylation, Western blot (in words) [3]: dose-dependent inhibition | solubility kinetic at 90 min [4]: 62 µM (≈ 16.8 µg/mL) | number of allergen-specific T cells (HDM-challenged mice): not changed | number of eosinophils in BALF vs PBS-treated control (HDM-challenged mice): substantially reduced | total number of leukocytes in BALF vs PBS control (HDM-challenged mice): comparable | number of eosinophils recruited to the airways ([5]; 100 mg/kg IP, BALF 48 h): significantly reduced | eosinophil numbers in BALF over time ([5]; 100 mg/kg IP, as early as 24 h post injection, up to 72 h): decreased | inhibition of airway inflammation ([5]; single IP administration, 10, 50 or 100 mg/kg, BALF 48 h): dose-dependent manner | 1D NMR signals of the compound in the presence of the protein (hTSLP): significantly broadened | 1D NMR signals of the compound in the presence of the protein (carbonic anhydrase): no signal broadening | 1D NMR signals of the compound in the presence of the protein (hTSLPR): no signal broadening | airway inflammation [6]: reduce | skin severity scores [7]: lower
